Positions of bridges follow the written chain, without caps; N, C: chain ends. Residues, ends and D or L forms follow the SMILES beside them. No end group written: not given here.
Experiments:
human platelets [1] = assay: Aggregate size after ADP-induced aggregation of human PRP (light microscopy); format: cell-based; details: 100 μM
Description: (§1) Human PRP was incubated with peptide antagonists (100 μmol/L, 5 min, 37 °C) or vehicle and stimulated with 10 μmol/L ADP under constant stirring at 1000 rpm (37 °C). Optical aggregation was monitored in a Chrono-Log Lumi-aggregometer (Chrono-Log Corporation, Havertown, PA, USA).
After 15 min, aggregates were fixed in 1 volume 0.5% glutaraldehyde in PBS and applied to microscope slides. Aggregates were dehydrated with methanol and stained with May-Grünwald/Giemsa. The aggregate size was measured by light microscopy equipped with a JAI-CCD camera (Copenhagen, Denmark) coupled to a Matrox frame grabber (Matrox Electronic Systems Ltd., Dorval, Quebec, Canada) using the ‘watershed’ function of the Optimas 6.2 software (Optimas Inc., Seattle, WA, USA). Results were expressed as mean aggregate size (μm^2).

human platelets [2] = assay: ADP-induced platelet aggregation in human platelet-rich plasma (optical aggregometry); format: cell-based; details: 10 μM ADP
Text: Freshly drawn venous blood from healthy volunteers was obtained through the Mini Donor Service, a blood donation facility for research purposes, that is approved by the Medical Ethics Committee of the University Medical Center Utrecht (protocol number 07-125). All donors provided written informed consent, in accordance with the Declaration of Helsinki for blood collection through this service. All participant information is kept confidential, and only Mini Donor Service personnel have access to the information provided. The donors were free of medication for at least two weeks before blood collection. Overnight fasting before blood collection was not necessary. Blood was collected into 0.1 volume 130 mmol/L trisodium citrate and was processed the same day and within 6 h. For aggregation studies, platelet-rich plasma (PRP) was prepared by centrifugation (150 g, 15 min, 20 °C) and adjusted to a final concentration of 2×10^11 platelets/L with platelet-poor plasma prepared from the remaining blood (1100 g, 10 min, 20 °C). […]
as §1

P-selectin [3] = target: T1, P-selectin (Homo sapiens, UniProt P16109); assay: Competition of [3H]-CE-labeled sulfatide liposome binding to P-selectin-coated wells; details: for Change in Sf42 liposome binding to P-selectin: Sf42 liposomes 100 μg/mL; for Change in Sf57 liposome binding to P-selectin: Sf57 liposomes 100 μg/mL; for Change in Sf28 liposome binding to P-selectin: Sf28 liposomes 100 μg/mL; for EC50: Sf28 liposomes (28% sulfatide)
T1 construct: purchased R&D systems (Minneapolis, MN, USA)
Description: Liposomes were prepared by sonication as follows. Egg yolk phosphatidylcholine, cholesterol, and sulfatides, all dissolved in chloroform/methanol (1:1, v/v), were mixed at weight ratios of 4:0.8:0 (named Sf0), 4:0.8:1.3 (Sf21), 2.5:0.8:1.3 (Sf28), 1:0.8:1.3 (Sf42), and 0.2:0.8:1.3 mg/mL (Sf57). The Sf numbers indicate the number of sulfatides as a percentage of total lipid weight. A tracer amount of [^3H]-cholesteryl oleate ([^3H]-CE; 1.3 × 10^8 dpm (disintegrations per minute)) was added, and the organic solvent was evaporated by a stream of nitrogen. The resulting lipid layer was vortexed in 1 mL phosphate buffered saline (PBS) and subsequently sonicated for 40 min at 54 °C using a Soniprep 150 (MSE Scientific Instruments, Crawley, UK) at 18 µm amplitude. Particle sizes were determined by photon correlation spectroscopy (Malvern 4700 C System, Malvern Instruments, Malvern, UK) at 25 °C and a 90° angle between laser and detector. […] Liposomes were stored at 4 °C under argon and used for characterization and metabolic studies within 7 days following preparation, during which no physicochemical changes occurred. As the liposomes were equal in size and incorporation of the radioactive label was quantitative, the specific activity of each sulfatide-bearing liposome was calculated as the amount of [^3H]-cholesteryloleate (dpm) divided by the total lipid content (ng).
Fc-specific goat anti-human IgG (10 μg/mL) was coated overnight at 4 °C in a high binding 96-well plate (Costar, Corning, UK) in coating buffer (50 mM NaHCO3, pH 9.6). Then, wells were washed with assay buffer (20 mmol/L HEPES, 150 mmol/L NaCl, 1 mmol/L CaCl2, pH 7.4) and incubated for 1 h at 37 °C with blocking buffer (3% bovine serum albumin (BSA) in assay buffer). After washing, wells were incubated with fusion proteins of IgG and P-, E-, or L-selectin (0.3 μg/mL, 2 h, 37 °C), washed with assay buffer, and subsequently incubated for 2 h at 4 °C with a concentration range of [^3H]-CE-labeled liposomes (0–800 µg lipid per mL assay buffer containing 0.2% BSA). For competition studies, labeled liposomes (1 × 10^5 dpm/well) were incubated in the presence of peptides or antibodies at the indicated concentrations. After removal of unbound liposomes by washing four times with assay buffer, bound liposomes were collected in 2-propanol/butanol/water (50:25:20, by vol.) and counted for radioactivity using a scintillation counter. Since the sulfatide liposomes were equal in size, the recovered amount of [^3H]-CE could be used to calculate the binding capacity of P-selectin for the sulfatide liposomes, as well as the recovered amount of lipid (ng/well) based on the specific activity.

[4] = target: P-selectin binding to HL60 cells (PSGL-1) (Homo sapiens, UniProt P16109); details: displacement of P-selectin binding to HL60 cells; ref Molenaar et al. [28]; cited from earlier work
Chain of P-selectin binding to HL60 cells (PSGL-1) (P16109 42-830 limits assumed): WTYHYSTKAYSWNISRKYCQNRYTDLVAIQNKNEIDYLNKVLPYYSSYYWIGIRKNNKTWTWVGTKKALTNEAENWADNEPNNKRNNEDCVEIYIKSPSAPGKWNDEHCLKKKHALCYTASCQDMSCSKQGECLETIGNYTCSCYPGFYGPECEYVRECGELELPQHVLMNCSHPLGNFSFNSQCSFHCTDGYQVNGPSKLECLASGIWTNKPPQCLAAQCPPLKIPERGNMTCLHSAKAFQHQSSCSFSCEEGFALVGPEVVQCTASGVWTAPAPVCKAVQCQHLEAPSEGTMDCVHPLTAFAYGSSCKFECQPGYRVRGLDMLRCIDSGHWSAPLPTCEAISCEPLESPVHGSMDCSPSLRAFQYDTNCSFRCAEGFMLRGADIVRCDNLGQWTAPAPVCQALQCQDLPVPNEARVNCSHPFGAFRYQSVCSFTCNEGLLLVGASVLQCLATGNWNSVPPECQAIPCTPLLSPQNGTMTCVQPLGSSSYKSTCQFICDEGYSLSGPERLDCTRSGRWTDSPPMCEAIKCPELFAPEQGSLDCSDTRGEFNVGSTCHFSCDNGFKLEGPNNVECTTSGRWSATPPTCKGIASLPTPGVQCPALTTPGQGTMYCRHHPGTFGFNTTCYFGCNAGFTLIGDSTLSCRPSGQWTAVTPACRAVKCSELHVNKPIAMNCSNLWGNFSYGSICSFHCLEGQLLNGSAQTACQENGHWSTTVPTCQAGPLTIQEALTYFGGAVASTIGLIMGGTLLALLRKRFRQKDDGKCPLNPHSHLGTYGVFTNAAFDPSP

E-selectin = target: T2, E-selectin (Homo sapiens, UniProt P16581); assay: Surface plasmon resonance (Biacore), sulfatide-coated L1 chip, E-selectin; format: binding; details: Fc fusion protein 40 nM
T2 construct: purchased R&D systems (Minneapolis, MN, USA)
T2 sequence (P16581 with tags, fused parts or gaps limits assumed): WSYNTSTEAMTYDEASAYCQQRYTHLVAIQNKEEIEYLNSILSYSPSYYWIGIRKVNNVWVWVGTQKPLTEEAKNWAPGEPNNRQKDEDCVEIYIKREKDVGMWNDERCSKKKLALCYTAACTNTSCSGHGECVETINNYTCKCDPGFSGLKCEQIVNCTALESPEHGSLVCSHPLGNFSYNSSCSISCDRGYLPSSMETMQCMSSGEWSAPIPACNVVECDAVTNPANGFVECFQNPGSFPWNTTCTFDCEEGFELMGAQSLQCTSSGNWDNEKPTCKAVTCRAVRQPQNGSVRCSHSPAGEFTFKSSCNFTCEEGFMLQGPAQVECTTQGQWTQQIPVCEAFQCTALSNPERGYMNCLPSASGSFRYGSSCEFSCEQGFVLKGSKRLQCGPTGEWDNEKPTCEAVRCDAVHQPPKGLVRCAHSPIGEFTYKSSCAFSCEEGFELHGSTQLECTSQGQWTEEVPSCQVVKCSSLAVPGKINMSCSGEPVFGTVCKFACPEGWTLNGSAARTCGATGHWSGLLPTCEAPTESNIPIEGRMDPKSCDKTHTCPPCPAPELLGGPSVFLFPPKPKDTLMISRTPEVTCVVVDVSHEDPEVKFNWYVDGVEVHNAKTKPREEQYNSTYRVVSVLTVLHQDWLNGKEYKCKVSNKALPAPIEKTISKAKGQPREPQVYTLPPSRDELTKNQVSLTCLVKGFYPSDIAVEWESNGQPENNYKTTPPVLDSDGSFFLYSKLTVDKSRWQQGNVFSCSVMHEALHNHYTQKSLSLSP
Description: (§2) A Biacore 2000 instrument (Biacore AB, Uppsala, Sweden) was used to analyze the interaction between sulfatides and P-, L, and E-selectins, as described. Experiments were performed at room temperature using running buffer (20 mmol/L HEPES, 150 mmol/L NaCl, 1 mmol/L CaCl2, 0.005% Surfactant P20, pH 7.4). Sulfatides were immobilized on L1 sensor chips at 5 μL/min according to the manufacturer’s instructions. Binding kinetics of human fusion proteins IgG and P-, L- and E- selectins to the immobilized sulfatides were determined by injection of the fusion proteins. At the end of each injection, the sensor chips were regenerated with 100 mmol/L NaOH and equilibrated with running buffer. All curves were corrected for non-specific binding by an online baseline subtraction of ligand binding to a control flow channel. Binding kinetics were analyzed using BIAevaluation software (V2.1; Pharmacia Biosensor, Uppsala, Sweden).

P-selectin [5] = target: T1, P-selectin; assay: Surface plasmon resonance (Biacore), sulfatide-coated L1 chip, P-selectin; format: binding; details: Fc fusion protein 40 nM
Description: as §2
Target sequence in this assay (P16109 with tags, fused parts or gaps limits assumed): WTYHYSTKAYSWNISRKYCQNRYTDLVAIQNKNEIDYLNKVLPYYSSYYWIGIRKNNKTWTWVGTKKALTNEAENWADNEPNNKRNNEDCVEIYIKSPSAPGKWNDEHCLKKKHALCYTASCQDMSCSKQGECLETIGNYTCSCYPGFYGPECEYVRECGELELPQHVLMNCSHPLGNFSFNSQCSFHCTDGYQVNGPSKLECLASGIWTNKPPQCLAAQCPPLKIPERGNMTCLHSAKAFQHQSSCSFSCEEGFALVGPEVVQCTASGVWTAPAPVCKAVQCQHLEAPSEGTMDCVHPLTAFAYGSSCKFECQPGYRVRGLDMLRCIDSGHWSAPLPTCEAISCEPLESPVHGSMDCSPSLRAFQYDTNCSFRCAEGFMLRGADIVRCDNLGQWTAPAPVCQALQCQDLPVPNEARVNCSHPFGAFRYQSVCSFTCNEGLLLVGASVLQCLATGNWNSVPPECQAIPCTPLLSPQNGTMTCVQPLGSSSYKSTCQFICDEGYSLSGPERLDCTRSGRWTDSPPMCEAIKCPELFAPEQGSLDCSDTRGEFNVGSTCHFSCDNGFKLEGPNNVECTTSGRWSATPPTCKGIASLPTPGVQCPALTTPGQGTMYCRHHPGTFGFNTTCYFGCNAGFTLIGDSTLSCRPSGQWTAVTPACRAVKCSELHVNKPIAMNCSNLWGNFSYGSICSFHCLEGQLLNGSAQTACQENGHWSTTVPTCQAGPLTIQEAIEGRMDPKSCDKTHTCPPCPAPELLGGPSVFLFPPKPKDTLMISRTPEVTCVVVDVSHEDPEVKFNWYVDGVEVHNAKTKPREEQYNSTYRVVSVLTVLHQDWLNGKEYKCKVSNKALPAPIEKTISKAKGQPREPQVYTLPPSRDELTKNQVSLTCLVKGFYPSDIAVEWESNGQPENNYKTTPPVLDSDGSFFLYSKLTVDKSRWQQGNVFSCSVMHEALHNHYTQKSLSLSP

L-selectin = target: T3, L-selectin (Homo sapiens, UniProt P14151); assay: Surface plasmon resonance (Biacore), sulfatide-coated L1 chip, L-selectin; format: binding; details: Fc fusion protein 40 nM
T3 sequence (P14151 39-318 limits assumed): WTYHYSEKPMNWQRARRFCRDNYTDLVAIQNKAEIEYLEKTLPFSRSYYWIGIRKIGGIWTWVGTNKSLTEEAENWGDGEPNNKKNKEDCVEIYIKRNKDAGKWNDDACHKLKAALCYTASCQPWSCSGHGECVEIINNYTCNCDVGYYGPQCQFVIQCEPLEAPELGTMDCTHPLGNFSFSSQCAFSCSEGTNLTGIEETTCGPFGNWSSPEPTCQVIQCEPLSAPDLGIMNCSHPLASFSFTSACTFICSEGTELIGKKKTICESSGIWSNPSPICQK
Description: as §2

[6] = target: human P-selectin-IgG (human) (UniProt P16109)
human P-selectin-IgG = target: T4, human P-selectin-IgG (human, UniProt P16109 42-771); assay: radioligand binding; displacement: P-selectin-IgG (0.3 ug/mL) captured on Fc-specific goat anti-human IgG in 96-well plates; [3H]-cholesteryl oleate-labelled Sf28 sulfatide liposomes (1 x 10^5 dpm/well) with increasing amounts of peptide; 2 h, 4 C; 20 mmol/L HEPES, 150 mmol/L NaCl, 1 mmol/L CaCl2, pH 7.4, 0.2% BSA; details: both partners purified
T4 construct: P-selectin, human, fused to IgG (Fc); Captured in the wells through Fc-specific goat anti-human IgG; also called human Fc fusion protein of P-selectin; fusion protein of IgG and P-selectin; source: bought: R&D systems
T4 sequence (looked up): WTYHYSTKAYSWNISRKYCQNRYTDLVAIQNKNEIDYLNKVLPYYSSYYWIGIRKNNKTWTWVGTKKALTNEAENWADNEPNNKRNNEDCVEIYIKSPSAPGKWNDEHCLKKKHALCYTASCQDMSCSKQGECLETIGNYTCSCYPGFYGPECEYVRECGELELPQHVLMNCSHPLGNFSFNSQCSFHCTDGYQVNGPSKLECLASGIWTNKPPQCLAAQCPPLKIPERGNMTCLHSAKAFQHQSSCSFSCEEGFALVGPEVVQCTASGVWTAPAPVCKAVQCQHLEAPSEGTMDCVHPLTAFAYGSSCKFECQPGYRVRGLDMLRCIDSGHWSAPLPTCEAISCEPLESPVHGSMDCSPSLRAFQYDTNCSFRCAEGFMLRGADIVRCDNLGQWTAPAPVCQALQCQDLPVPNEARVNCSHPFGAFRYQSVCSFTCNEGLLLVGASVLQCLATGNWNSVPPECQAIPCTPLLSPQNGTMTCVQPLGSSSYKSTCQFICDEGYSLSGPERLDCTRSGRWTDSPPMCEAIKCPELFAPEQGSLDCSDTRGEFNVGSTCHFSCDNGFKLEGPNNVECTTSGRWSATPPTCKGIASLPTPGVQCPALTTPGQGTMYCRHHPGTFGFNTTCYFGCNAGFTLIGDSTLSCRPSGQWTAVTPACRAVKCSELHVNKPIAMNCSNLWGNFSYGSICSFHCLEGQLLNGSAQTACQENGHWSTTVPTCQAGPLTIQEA

For `CC(C)[C@@H]1NC(=O)[C@H](CC(=O)O)NC(=O)[C@H](C(C)C)NC(=O)[C@H](Cc2c[nH]c3ccccc23)NC(=O)[C@H](CCC(=O)O)NC(=O)[C@H](C(C)C)NC(=O)[C@H](CC(=O)O)NC(=O)[C@@H](N)CSSC[C@@H](C(=O)O)NC(=O)[C@H](CO)NC1=O` [CDVEWVDVSC] (H-CDVEWVDVSC-OH; disulfide 1-10 (inferred); N-terminus and C-terminus assumed), the “Reduction of mean aggregate size” value (human platelets [1]; ADP-induced aggregation of human PRP) was “about 90%”, the “Aggregates smaller than 1000 μm^2” value (human platelets [1]; 15% in the absence of inhibitors) was 76% and the “Initial slope of platelet aggregation” value (human platelets [2]; 100 μM peptide) was “remained unaltered”. For the same molecule, the “Aggregation: percentage inhibition of platelet aggregation” value (human platelets [2]; 100 µM peptide, human PRP, maximum aggregation) was 43% (p<0.001), the “Change in Sf42 liposome binding to P-selectin” value (P-selectin [3]; 0.5 µM) was “did not affect” and the “Change in Sf57 liposome binding to P-selectin” value (P-selectin [3]; 0.5 µM) was “did not affect”.

In the case of `O=C(O)CN(CCN(CC(=O)O)CC(=O)O)CC(=O)O` [EDTA, reference compound], the “Change in Sf28 liposome binding to P-selectin” value (P-selectin [3]; 10 mM) is reported as −79%, the “Change in Sf42 liposome binding to P-selectin” value (P-selectin [3]; 10 mM) is reported as “did not affect” and the “Change in Sf57 liposome binding to P-selectin” value (P-selectin [3]; 10 mM) is reported as “did not affect”.

In the case of AVEWVDVS [AVEWVDVS], the EC50 [4] is listed as 12 µM and the EC50 (P-selectin [3]) is listed as > 1000 µM.

In the case of DAEWVDVS [DAEWVDVS], the EC50 [4] is given as 19 µM and the EC50 (P-selectin [3]) is given as > 1000 µM.

For DVAWVDVS [DVAWVDVS], the EC50 [4] is listed as 41 µM and the EC50 (P-selectin [3]) is listed as > 1000 µM.

For DVEAVDVS [DVEAVDVS], the EC50 [4] is listed as > 1000 µM and the EC50 (P-selectin [3]) is listed as > 1000 µM.

In the case of DVEWADVS [DVEWADVS], the EC50 [4] is listed as > 1000 µM and the EC50 (P-selectin [3]) is listed as > 1000 µM.

For DVEWVAVS [DVEWVAVS], the EC50 [4] is given as > 1000 µM and the EC50 (P-selectin [3]) is given as > 1000 µM.

In the case of DVEWVDAS [DVEWVDAS], the EC50 [4] is given as > 1000 µM and the EC50 (P-selectin [3]) is given as > 1000 µM.

For DVEWVDVA [DVEWVDVA], the EC50 [4] is listed as 7 µM.

In the case of DVEWVDVS [DVEWVDVS], the EC50 [4] is listed as 11 µM and the EC50 (P-selectin [3]) is listed as 12 µM.

In the case of EWVDV [EWVDV], the EC50 [4] is given as 12 µM, the EC50 (P-selectin [3]) is given as > 1000 µM and the IC50 (P-selectin [3]; abstract) is given as > 1000 µM.

For EWVKV [EWVKV], the EC50 [4] is given as > 1000 µM and the EC50 (P-selectin [3]) is given as > 1000 µM.

In the case of VEWVDV [VEWVDV], the EC50 [4] is listed as 13 µM and the EC50 (P-selectin [3]) is listed as > 1000 µM.

For “cerebroside sulfate, bovine [Sulfatides]”, the “Binding of E-selectin to sulfatide-coated sensor chip” value (E-selectin) was “not E-selectin”, the “Binding of P-selectin to sulfatide-coated sensor chip” value (P-selectin [5]) was “bind” and the “Binding of L-selectin to sulfatide-coated sensor chip” value (L-selectin) was “bind”.

In the case of “rPSGL-1-Ig: recombinant PSGL-1 immunoglobulin fusion, P-selectin inhibitor”, the “Change in Sf28 liposome binding to P-selectin” value (P-selectin [3]; 15 µg/mL) is reported as −88%, the “Change in Sf42 liposome binding to P-selectin” value (P-selectin [3]; 15 µg/mL) is reported as −97% and the “Change in Sf57 liposome binding to P-selectin” value (P-selectin [3]; 15 µg/mL) is reported as −68%.

B1: EWVKV (peptide)
peptide: EWVKV
For B1, the Percentage inhibition of ADP-induced aggregation of human platelet-rich plasma at 100 uM peptide (sulfatide/P-selectin-dependent aggregation) [6] was 0%.

B2: CDVEWVDVSC (peptide)
peptide: CDVEWVDVSC
notes: also called peptide antagonist; elongated EWVDV peptide
B2 showed an EC50 (human P-selectin-IgG) of 0.2 µM.

B3: EWVDV (peptide)
peptide: EWVDV
Molecule B3 has a Percentage inhibition of ADP-induced aggregation of human platelet-rich plasma at 100 uM peptide (sulfatide/P-selectin-dependent aggregation) [6] of 12%.

B4: DVEWVDVA (peptide)
peptide: DVEWVDVA
notes: also called elongated EWVDV peptide
B4 gave an EC50 (human P-selectin-IgG) of 8 µM.
